How the values were obtained:
[1] = biological target: Ribosomal protein S6 kinase alpha-2 (Homo sapiens) (UniProt Q15349); test: Inhibition of recombinant human GST-tagged full length RSK3 expressed in insect expression system using Ser/Thr 06 as substrate at 10 uM incubated for 60 mins by Z'-Lyte assay relative to control
[2] = biological target: Hepatocyte growth factor receptor (Homo sapiens) (UniProt P08581); test: Inhibition of recombinant human His-tagged MET (956 to 1390 residues) expressed in baculovirus expression system using Tyr 06 as substrate at 10 uM incubated for 60 mins by Z'-lyte assay relative to control
[3] = biological target: Mitogen-activated protein kinase kinase kinase 10 (Homo sapiens) (UniProt Q02779); test: Inhibition of tracer 236 binding to recombinant human GST-tagged full length MLK2 expressed in baculovirus expression system at 10 uM incubated for 60 mins by Lanthascreen assay relative to control
[4] = biological target: Serine/threonine-protein kinase MRCK alpha (Homo sapiens) (UniProt Q5VT25); test: Inhibition of recombinant human His-tagged MRCKA (1 to 473 residues) expressed in baculovirus expression system using Ser/Thr 13 as substrate at 10 uM incubated for 60 mins by Z'-lyte assay relative to control
[5] = biological target: Casein kinase I isoform delta (Homo sapiens) (UniProt P48730); test: Inhibition of recombinant human GST-tagged full length CK1delta expressed in baculovirus expression system using Ser/Thr 11 as substrate at 10 uM incubated for 60 mins by Z'-Lyte assay relative to control
[6] = biological target: Mitogen-activated protein kinase kinase kinase kinase 5 (Homo sapiens) (UniProt Q9Y4K4); test: Inhibition of recombinant human GST-tagged full length KHS1 expressed in baculovirus expression system using Ser/Thr 07 as substrate at 10 uM incubated for 60 mins by Z'-lyte assay relative to control
[7] = biological target: Misshapen-like kinase 1 (Homo sapiens) (UniProt Q8N4C8); test: Inhibition of recombinant human GST-tagged MINK1 (1 to 320 residues) expressed in baculovirus expression system using Ser/Thr 07 as substrate at 10 uM incubated for 60 mins by Z'-lyte assay relative to control
Chain of Misshapen-like kinase 1 (Homo sapiens) (Q8N4C8 whole entry, looked up, the tested form may be a part): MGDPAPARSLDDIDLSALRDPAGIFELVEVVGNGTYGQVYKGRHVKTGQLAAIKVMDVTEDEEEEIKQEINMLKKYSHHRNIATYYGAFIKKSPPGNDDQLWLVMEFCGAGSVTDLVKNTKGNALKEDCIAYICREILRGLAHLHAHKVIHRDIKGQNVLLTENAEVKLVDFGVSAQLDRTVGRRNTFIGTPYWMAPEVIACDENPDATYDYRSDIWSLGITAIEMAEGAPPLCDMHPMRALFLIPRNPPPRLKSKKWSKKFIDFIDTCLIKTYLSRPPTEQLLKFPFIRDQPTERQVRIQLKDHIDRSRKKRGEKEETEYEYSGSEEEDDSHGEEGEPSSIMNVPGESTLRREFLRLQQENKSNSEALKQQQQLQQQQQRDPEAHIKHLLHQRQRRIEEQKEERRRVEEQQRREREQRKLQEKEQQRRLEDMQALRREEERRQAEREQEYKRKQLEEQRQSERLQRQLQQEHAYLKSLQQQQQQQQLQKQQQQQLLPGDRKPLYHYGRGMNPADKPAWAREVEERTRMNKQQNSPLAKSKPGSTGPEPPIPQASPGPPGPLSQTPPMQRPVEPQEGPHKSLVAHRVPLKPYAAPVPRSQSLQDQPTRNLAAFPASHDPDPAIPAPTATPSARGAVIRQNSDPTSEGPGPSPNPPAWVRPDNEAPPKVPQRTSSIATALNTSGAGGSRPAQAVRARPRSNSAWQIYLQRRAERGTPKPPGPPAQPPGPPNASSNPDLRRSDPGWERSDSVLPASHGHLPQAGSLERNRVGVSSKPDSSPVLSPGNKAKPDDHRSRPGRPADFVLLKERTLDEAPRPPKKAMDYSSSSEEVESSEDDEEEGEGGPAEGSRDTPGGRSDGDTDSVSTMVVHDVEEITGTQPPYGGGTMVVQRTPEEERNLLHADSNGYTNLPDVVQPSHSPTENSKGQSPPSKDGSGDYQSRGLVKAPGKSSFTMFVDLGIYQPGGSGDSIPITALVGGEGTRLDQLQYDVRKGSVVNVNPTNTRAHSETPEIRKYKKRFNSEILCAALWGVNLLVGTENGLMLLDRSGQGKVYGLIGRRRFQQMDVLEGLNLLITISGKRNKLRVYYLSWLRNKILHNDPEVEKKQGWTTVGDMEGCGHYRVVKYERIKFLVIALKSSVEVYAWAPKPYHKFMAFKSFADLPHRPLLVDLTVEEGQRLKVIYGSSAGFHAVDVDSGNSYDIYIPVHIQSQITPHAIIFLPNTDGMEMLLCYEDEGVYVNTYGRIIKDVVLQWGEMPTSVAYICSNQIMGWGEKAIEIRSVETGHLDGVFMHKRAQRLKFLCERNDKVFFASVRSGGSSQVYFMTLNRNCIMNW

[8] = biological target: Vascular endothelial growth factor receptor 2 (Homo sapiens) (UniProt P35968); test: Inhibition of recombinant human His-tagged KDR (789 to 1356 residues) expressed in baculovirus expression system using Tyr 01 as substrate at 10 uM incubated for 60 mins by Z'-lyte assay relative to control
[9] = biological target: ALK tyrosine kinase receptor (Homo sapiens) (UniProt Q9UM73); test: Inhibition of recombinant human GST-tagged […] (1058 to 1620 residues) expressed in baculovirus expression system using Tyr 01 as substrate at 10 uM incubated for 60 mins by Z'-Lyte assay relative to control
[10] = biological target: Epithelial discoidin domain-containing receptor 1 (Homo sapiens) (UniProt Q08345); test: Inhibition of tracer 178 binding to recombinant human GST-tagged DDR1 (440 to 876 residues ) expressed in baculovirus expression system at 10 uM incubated for 60 mins by Lanthascreen assay relative to control
[11] = biological target: Mitogen-activated protein kinase kinase kinase 2 (Homo sapiens) (UniProt Q9Y2U5); test: Inhibition of tracer 236 binding to recombinant human GST-tagged full length MEKK2 expressed in baculovirus expression system at 10 uM incubated for 60 mins by Lanthascreen assay relative to control
Chain of Mitogen-activated protein kinase kinase kinase 2 (Homo sapiens) (Q9Y2U5 whole entry): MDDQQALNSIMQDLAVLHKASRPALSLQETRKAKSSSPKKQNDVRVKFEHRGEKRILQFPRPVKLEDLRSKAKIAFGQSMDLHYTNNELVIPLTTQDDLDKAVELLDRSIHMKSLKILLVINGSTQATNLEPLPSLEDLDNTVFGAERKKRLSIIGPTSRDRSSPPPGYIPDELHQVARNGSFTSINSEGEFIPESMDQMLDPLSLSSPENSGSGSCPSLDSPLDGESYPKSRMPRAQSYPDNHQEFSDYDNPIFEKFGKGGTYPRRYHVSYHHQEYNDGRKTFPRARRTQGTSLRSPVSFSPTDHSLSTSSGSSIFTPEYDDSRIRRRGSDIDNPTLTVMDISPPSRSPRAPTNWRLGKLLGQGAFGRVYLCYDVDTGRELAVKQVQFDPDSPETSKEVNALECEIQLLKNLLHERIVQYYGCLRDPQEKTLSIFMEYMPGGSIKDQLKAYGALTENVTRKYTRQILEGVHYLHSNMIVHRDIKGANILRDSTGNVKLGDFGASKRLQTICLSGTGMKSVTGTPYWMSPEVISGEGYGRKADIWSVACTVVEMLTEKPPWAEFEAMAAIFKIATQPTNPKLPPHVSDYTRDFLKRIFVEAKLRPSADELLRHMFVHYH

[12] = biological target: Bone morphogenetic protein receptor type-1A (Homo sapiens) (UniProt P36894); test: Inhibition of tracer 178 binding to recombinant human N-terminal GST-tagged full length BMPR1A expressed in insect expression system at 10 uM incubated for 60 mins by Lanthascreen assay relative to control
[13] = biological target: Receptor-type tyrosine-protein kinase FLT3 (Homo sapiens) (UniProt P36888); test: Inhibition of recombinant human His-tagged FLT3 (564 to 958 residues) expressed in baculovirus expression system using Tyr 02 as substrate at 10 uM incubated for 60 mins by Z'-Lyte assay relative to control
[14] = biological target: Calcium/calmodulin-dependent protein kinase type II subunit beta (Homo sapiens) (UniProt Q13554); test: Inhibition of recombinant human His-tagged full length CAMK2beta expressed in baculovirus expression system using Ser/Thr 04 as substrate at 10 uM incubated for 60 mins by Z'-Lyte assay relative to control
Chain of Calcium/calmodulin-dependent protein kinase type II subunit beta (Homo sapiens) (Q13554 whole entry): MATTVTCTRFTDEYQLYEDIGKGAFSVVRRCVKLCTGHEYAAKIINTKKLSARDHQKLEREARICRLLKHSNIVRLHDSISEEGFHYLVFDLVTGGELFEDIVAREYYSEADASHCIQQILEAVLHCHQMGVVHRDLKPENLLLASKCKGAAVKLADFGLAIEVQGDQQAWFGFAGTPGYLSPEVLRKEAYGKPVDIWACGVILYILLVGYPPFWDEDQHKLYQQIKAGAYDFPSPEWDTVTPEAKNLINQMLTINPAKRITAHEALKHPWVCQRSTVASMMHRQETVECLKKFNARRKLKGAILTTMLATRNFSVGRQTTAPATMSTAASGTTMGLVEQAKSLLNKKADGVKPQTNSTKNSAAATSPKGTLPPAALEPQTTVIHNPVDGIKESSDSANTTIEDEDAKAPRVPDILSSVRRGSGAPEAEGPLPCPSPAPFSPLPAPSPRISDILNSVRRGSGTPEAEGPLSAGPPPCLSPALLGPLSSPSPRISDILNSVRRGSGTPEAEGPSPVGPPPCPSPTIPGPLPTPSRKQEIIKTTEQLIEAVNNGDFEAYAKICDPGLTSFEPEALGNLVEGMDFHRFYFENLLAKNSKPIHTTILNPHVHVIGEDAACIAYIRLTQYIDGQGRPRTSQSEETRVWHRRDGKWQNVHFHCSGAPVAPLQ

[15] = biological target: Ribosomal protein S6 kinase alpha-5 (Homo sapiens) (UniProt O75582); test: Inhibition of recombinant human GST-tagged full length MSK1 expressed in baculovirus expression system using Ser/Thr 01 as substrate at 10 uM incubated for 60 mins by Z'-lyte assay relative to control
Chain of Ribosomal protein S6 kinase alpha-5 (Homo sapiens) (O75582 whole entry, looked up): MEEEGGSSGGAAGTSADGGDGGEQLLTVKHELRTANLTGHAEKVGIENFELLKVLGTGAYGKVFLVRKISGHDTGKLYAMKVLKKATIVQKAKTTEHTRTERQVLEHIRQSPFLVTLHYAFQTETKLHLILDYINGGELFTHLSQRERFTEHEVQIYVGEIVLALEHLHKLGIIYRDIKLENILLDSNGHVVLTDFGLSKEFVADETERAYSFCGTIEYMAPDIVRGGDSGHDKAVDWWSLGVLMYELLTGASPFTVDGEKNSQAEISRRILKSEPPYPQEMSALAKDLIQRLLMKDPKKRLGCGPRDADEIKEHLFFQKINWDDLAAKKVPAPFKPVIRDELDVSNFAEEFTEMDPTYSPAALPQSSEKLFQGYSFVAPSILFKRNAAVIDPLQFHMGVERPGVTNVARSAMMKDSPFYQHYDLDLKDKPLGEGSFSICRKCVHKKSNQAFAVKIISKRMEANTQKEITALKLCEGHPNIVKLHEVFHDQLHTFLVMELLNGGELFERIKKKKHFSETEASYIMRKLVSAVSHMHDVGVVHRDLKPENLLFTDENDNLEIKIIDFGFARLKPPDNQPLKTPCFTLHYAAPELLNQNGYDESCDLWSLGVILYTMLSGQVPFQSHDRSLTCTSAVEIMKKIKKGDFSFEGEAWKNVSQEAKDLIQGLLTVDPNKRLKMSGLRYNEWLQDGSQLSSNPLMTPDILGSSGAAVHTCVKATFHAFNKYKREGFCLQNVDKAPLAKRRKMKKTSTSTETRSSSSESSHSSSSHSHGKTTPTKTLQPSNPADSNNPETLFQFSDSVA

[16] = biological target: Mitogen-activated protein kinase 1 (Homo sapiens) (UniProt P28482); test: Inhibition of recombinant human GST-tagged full length ERK2 expressed in baculovirus expression system using Ser/Thr 03 as substrate at 10 uM incubated for 60 mins by Z'-Lyte assay relative to control
Chain of Mitogen-activated protein kinase 1 (Homo sapiens) (P28482 whole entry, the tested form may be a part): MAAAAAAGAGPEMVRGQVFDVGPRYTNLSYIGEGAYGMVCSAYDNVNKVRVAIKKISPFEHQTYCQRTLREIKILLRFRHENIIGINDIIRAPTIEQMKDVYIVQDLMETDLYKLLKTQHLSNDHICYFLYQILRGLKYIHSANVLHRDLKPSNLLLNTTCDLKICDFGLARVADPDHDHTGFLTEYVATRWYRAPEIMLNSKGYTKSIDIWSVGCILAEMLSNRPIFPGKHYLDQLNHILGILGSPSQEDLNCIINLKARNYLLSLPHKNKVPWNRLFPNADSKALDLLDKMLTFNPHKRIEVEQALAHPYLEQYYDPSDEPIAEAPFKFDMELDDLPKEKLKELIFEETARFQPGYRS

[17] = biological target: Receptor-interacting serine/threonine-protein kinase 2 (Homo sapiens) (UniProt O43353); test: Inhibition of tracer 178 binding to recombinant human His-tagged RIPK2 (1 to 299 residues) expressed in insect expression system at 10 uM incubated for 60 mins by Lanthascreen assay relative to control
[18] = biological target: Aurora kinase A (Homo sapiens) (UniProt O14965); test: Inhibition of recombinant human His-tagged full length Aurora A expressed in baculovirus expression system using Ser/Thr 01 as substrate at 10 uM incubated for 60 mins by Z'-Lyte assay relative to control
[19] = biological target: Sphingosine kinase 1 (Homo sapiens) (UniProt Q9NYA1); test: Inhibition of recombinant human GST-tagged full length SPHK1 expressed in baculovirus expression system using sphingosine lipid substrate mixture as substrate at 10 uM incubated for 60 mins by Adapta assay relative to control
[20] = biological target: Dual specificity protein kinase CLK1 (Homo sapiens) (UniProt P49759); test: Inhibition of recombinant human GST-tagged CLK1 (129 to 484 residues) expressed in Escherichia coli expression system using Ser/Thr 09 as substrate at 10 uM incubated for 60 mins by Z'-Lyte assay relative to control
Chain of Dual specificity protein kinase CLK1 (Homo sapiens) (P49759 whole entry, looked up, the tested form may be a part): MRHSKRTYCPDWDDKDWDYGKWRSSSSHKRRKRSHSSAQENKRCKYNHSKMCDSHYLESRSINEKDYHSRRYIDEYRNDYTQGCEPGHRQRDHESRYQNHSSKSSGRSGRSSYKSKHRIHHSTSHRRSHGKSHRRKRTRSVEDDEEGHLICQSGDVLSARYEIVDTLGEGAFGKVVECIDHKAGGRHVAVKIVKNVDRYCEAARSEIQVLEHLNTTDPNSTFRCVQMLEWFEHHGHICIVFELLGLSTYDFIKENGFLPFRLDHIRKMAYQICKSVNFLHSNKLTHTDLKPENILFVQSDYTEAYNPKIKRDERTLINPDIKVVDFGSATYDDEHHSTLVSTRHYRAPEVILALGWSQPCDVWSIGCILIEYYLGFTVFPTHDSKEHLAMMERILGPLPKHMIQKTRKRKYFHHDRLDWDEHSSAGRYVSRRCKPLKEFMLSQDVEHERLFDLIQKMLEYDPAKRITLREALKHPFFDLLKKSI

[21] = biological target: TGF-beta receptor type-1 (Homo sapiens) (UniProt P36897); test: Inhibition of tracer 178 binding to recombinant human N-terminal GST-tagged TGFBR1 (200 to 503 residues) expressed in baculovirus expression system at 10 uM incubated for 60 mins by Lanthascreen assay relative to control

Chain of Ribosomal protein S6 kinase alpha-2 (Homo sapiens) (Q15349 whole entry, the tested form may be a part): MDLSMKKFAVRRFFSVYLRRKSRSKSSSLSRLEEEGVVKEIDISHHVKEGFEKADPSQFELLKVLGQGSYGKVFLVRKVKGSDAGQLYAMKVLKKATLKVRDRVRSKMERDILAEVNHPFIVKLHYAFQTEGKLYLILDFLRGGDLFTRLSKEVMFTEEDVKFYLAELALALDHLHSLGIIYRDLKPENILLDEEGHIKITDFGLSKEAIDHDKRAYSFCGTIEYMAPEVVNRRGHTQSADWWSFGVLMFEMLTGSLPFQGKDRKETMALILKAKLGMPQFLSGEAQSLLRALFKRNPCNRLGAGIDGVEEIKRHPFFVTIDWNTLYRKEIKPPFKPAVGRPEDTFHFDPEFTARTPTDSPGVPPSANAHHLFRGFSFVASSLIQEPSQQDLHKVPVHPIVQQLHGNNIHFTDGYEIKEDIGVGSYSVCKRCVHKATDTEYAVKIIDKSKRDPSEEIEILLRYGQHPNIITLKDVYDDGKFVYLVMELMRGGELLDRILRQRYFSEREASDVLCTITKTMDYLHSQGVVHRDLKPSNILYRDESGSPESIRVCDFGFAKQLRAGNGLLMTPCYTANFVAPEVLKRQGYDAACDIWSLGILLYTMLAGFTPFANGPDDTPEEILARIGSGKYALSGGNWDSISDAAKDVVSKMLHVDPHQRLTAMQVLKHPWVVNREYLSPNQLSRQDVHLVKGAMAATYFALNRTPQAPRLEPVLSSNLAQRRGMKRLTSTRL

Compound: CN1C(=O)[C@@H](NC(=O)c2n[nH]c3ncc(C(F)(F)C(F)(F)F)cc23)COc2ccccc21
- inhibition [1]: -4.5%
- inhibition [2]: 4.5%
- inhibition [3]: 13.5%
- inhibition [4]: 0%
- inhibition [5]: 1%
- inhibition [6]: -0.5%
- inhibition [7]: 12.5%
- inhibition [8]: 8%
- inhibition [9]: 3%
- inhibition [10]: 7%
- inhibition [11]: -1%
- inhibition [12]: 5%
- inhibition [13]: 8.5%
- inhibition [14]: -1%
- inhibition [15]: -1%
- inhibition [16]: 7%
- inhibition [17]: -1%
- inhibition [18]: 0%
- inhibition [19]: -8%
- inhibition [20]: 3.5%
- inhibition [21]: -4.5%
